# Experiments:
# [1] = tested on: Y289H rWSN; assay type: cell-based, influenza A virus; conditions: read-out: IC50 (μM) Y289H rWSM (H1N1)
# [2] = tested on: A/WSN/1933 (H1N1); assay type: cell-based, influenza A virus
Structure (SMILES),IC50 [1] [µM],sensitivity of RK424 3rd passage virus [2],sensitivity of nucleozin 4th passage virus [2]
O=C(O)c1cc(-c2ccc(-c3ccccc3)cc2)nc2ccccc12 [RK424],0.3 ± 0.1,susceptible,but not RK424
"Cc1onc(-c2ccccc2)c1C(=O)N1CCN(c2ccc([N+](=O)[O-])cc2Cl)CC1 [Nucleozin, nucleozin, reference compound]",> 100,susceptible,exhibited resistance
